Data taken from ChEMBL document CHEMBL1131798, “Synthesis and cytotoxicity of analogues of the antibiotic BE 10988 inhibitors of DNA topoisomerase II” (Bioorg Med Chem Lett, 1999).

tested on: L1210; experiment: Antiproliferative activity using the murine L1210 leukemia cell line; type: functional, cell-based; conditions: Mus musculus

Row | IC50 | SMILES
1 | > 10 µM | COc1ccc(OC)c2c1c(-c1nc(C(N)=O)cs1)cn2C
2 | > 100 µM | COc1ccc(OC)c2c1c(C(=O)NCCN1CCOCC1)cn2C
3 | 0.8 µM | Cn1cc(-c2nc(C(N)=O)cs2)c2c1C(=O)C=CC2=O
4 | 6.5 µM | Cn1cc(C(=O)NCCN2CCOCC2)c2c1C(=O)C=CC2=O
